Measured values as given in US20250195525A1, “ANGIOTENSIN II RECEPTOR ANTAGONIST FOR THE PREVENTION OF SYSTEMIC DISEASES IN CATS” (Boehringer Ingelheim Vetmedica GmbH, priority 2023, published 2025).

Key:
[1] = cat, in vivo
[2] = tested on: angiotensin II receptor 1; experiment: Angiotensin II induced blood pressure response in laboratory cats; format: in vivo, cat
Excerpt: Moreover, a study in laboratory cats was established to investigate the Angiotensin II induced increase in diastolic blood pressure prior to and after administration of telmisartan. This test was established to estimate the potency as well as the duration of action of sartans, in particular of telmisartan in cats.

cats with CKD = experiment: placebo controlled field trial in client-owned cats with CKD: progression of SBP; format: in vivo, cat; settings: 1 mg/kg body weight
Procedure: This prospective, placebo controlled, randomized, double-blind, multicenter, multinational field study enrolled client-owned cats that were presented in the normal course of veterinary practice to evaluate safety and efficacy of telmisartan on progression-free survival time in cats with CKD compared to placebo. In this study 545 cats were randomly assigned to telmisartan (1 mg/kg body weight) or placebo in a ratio of 1:1.
At least two weeks before the start of the field study, creatinine value and Urine Specific Gravity (USG) were determined. Only cats were included in the study which were diagnosed with CKD, meaning a creatinine value ≥1.9 mg/dl (168 μmol/L) and <5.0 mg/dL (440 μmol/L) and a USG of <1.035.
At all visit timepoints, SBP was recorded prior to performing any other procedures scheduled for the animal during the visit. • 5 SBP readings were taken following a ≥10 minute acclimation period. • The highest and the lowest SBP were excluded and a mean of the remaining 3 SBPs was used to obtain the mean SBP for that visit. Visits were scheduled on Day 0, 30, 90, 180, 270, 365, 450, 540, 630, 730, 810, 900, 990, 1080, 1170, 1260, 1350, 1440 (each ±7) and, if applicable, additional visits every 3 months (+7 days).

[3] = human patients, high dose of 160 mg daily (80 mg twice daily); cited from earlier work

SMILES: CCCc1nc2c(C)cc(-c3nc4ccccc4n3C)cc2n1Cc1ccc(-c2ccccc2C(=O)O)cc1 [Telmisartan, 4′-[2-n-propyl-4-methyl-6-(1-methylbenzimidazol-2-yl)-benzimidazol-1-ylmethyl]-biphenyl-2-carboxylic acid]
- AUC (in vivo; iv): 385 ng·h/mL
- AUC (in vivo; po): 150 ng·h/mL
- mean V/f oral (second mention, after the intravenous values) [1]: 8.8 L/kg
- mean V/f oral ([1]; po): 20.4 L/kg
- inhibition of the blood pressure response ([2]; cats, doses of less than 0.05 mg per kg body weight, majority of the tested cats): about 75%
- diastolic blood pressure responses to increasing intravenous doses of Angiotensin II ([2]; laboratory cats, approximately 24 hours after the last oral dosing, target dose compared with Placebo): significantly reduced
- Time to event for progression of SBP (up to 160 mmHg), median no. of days (cats with CKD): 446.0 days
- delay in reaching the endpoint of SBP of 160 mmHg versus placebo (median number of days) (cats with CKD; compared to placebo): 84.5 days
- Mean probability for progression of SBP (cats with CKD; progression = SBP ≥160 mmHg and increase of >20 mmHg compared to baseline): 0.035
- plasma level (Cmax±SD) [3]: about 2800±2400 ng/ml
